Reference: publication PMC11852496, “A Modular Customizable Ligand-Conjugate (LC) System Targeting Ghrelin O-Acyltransferase” (Biomolecules, 2025)
Several values for one entry are separate records, joined by “and”; a condition that tells them apart may be missing. Equal entries are not always repeated. Where two headings read alike, the source gives them in different places. Non-standard residues stand in square brackets, D forms with d. Residues, ends and D or L forms follow the SMILES beside them. *: point of attachment. X4 = CN1C(=C/C=C/C=C/C2=[N+](CCCCCC(=O)NCCCn3cc(COC[C@H]4CC[C@H](CN5C(=O)CC(*)C5=O)CC4)nn3)c3ccc(S(=O)(=O)[O-])cc3C2(C)C)C(C)(C)c2cc(S(=O)(=O)O)ccc21; X2 = N=c1ccc2c(-c3ccc(C(=O)NCCCn4cc(COC[C@H]5CC[C@H](CN6C(=O)CC(*)C6=O)CC5)nn4)cc3C(=O)O)c3ccc(N)c(S(=O)(=O)O)c3oc-2c1S(=O)(=O)O; X5 = COc1cc(/N=N/c2ccc(C)cc2[N+](=O)[O-])c(C)cc1/N=N/c1ccc(N(C)CCCC(=O)NCCn2cc(COC[C@H]3CC[C@H](CN4C(=O)CC(*)C4=O)CC3)nn2)cc1; X3 = O=C(NCCCn1cc(COC[C@H]2CC[C@H](CN3C(=O)CC(*)C3=O)CC2)nn1)c1ccc2c(c1)C(=O)OC21c2ccc(O)cc2Oc2cc(O)ccc21; X7 = C#CCOC[C@H]1CC[C@H](CN2C(=O)CC(*)C2=O)CC1; 1Nal = N[CH](Cc1cccc2ccccc12)C(=O)O; X1 = O=C1NC2CSC(CCCCC(=O)*)C2N1; PEG3 = NCCOCCOCCOCCC(=O)O; Dap = NC[CH](N)C(=O)O

Target: T1, hGOAT (human ghrelin O-acyltransferase) (Homo sapiens, UniProt Q96T53)
T1 construct: made in house; host or cells: Sf9 insect cells (membrane/microsomal fraction)
T1 sequence (Q96T53 1-435): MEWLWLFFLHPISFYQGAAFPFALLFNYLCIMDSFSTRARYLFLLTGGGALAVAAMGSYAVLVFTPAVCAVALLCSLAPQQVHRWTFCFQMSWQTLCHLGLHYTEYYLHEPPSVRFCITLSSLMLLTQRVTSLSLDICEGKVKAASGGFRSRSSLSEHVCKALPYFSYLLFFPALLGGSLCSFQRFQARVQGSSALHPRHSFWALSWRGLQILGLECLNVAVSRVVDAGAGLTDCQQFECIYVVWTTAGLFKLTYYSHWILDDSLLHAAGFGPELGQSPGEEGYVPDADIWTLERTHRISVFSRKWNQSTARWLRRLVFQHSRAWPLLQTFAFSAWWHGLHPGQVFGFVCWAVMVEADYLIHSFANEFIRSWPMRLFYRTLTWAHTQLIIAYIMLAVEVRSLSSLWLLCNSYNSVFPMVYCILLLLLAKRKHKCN
Assay: GOAT ghrelin acylation (octanoylation) inhibition assay, membrane fraction of Sf9 cells expressing hGOAT, HPLC readout
Format: biochemical
Details: for IC50: average of three independent trials; for IC50 relative to parent ligand 5: fold change relative to ligand 5; for change in binding potency with PEG3 linker B compared to linker A: primed ligand (linker B) relative to unprimed ligand (linker A)
Method: The microsomal fraction containing hGOAT for the ligand-binding studies by IC50 determination was prepared according to published protocols. For the GOAT inhibition assay, serial dilutions of 0, 0.15, 0.5, 1, 5, 15, and 50 µM concentrations were prepared in 50% acetonitrile for each ligand used. The membrane fractions from the Sf9 cells expressing GOAT were first thawed on ice then passed through an 18-gauge needle 10 times to homogenize them. The assays were performed with approximately 30 µg of the membrane protein as determined through a Bradford assay. The standard reaction conditions contained 50 mM HEPES pH 7.0, 1 µM MAFP, 30 µg of membrane protein, and ultrapure water. The ligands were added to the reaction mixtures and incubated for 30 min at room temperature protected from light prior to the reaction initiation. The reactions were initiated by octanoyl CoA (300 µM final concentration) and GSSFLCAcdan (0.3 µM final concentration) in a total reaction volume of 50 µL. […] The reactions were stopped with 50 µL of 20% acetic acid in isopropanol. The excess membrane fraction was precipitated with 16.7 µL of 40% trichloroacetic acid (TCA) followed by a 1000× g centrifugation for 2 min. The supernatant was then analyzed via reverse-phase HPLC in 100 µL samples as previously described. The inhibition trials were run in triplicate, with the reported IC50 values representing the average of at least three trials. The IC50 values for all LCs are reported in Supplemental Table S2.
The assays were analyzed on reverse-phase HPLC (Zorbax Eclipse XDB column, 4.6 × 150 mm) using a solvent gradient from […] in aqueous 0.05% TFA over 5 min at a flow rate of 1 mL/min, followed by a gradient of […] in 0.05% TFA over 1 min, 100% acetonitrile for 5 min, and a gradient of 100% acetonitrile to 30% acetonitrile in 0.05% TFA for 5 min. The total time for each run was 16 min. The peptides were detected by the attached acrylodan label with the UV absorbance at 360 nm and fluorescence (λex = 360 nm, λem = 485 nm). The octanoylated peptide typically eluted at around 7.5 min, with the unreacted peptide eluting at around 2.5 min. Chemstation for LC (Agilent Technologies) was used for peak integration.
The peak integrations were used to determine the percent conversion in the presence of either the inhibitor (ligand, LC) or the vehicle (50% acetonitrile). The percent activity was calculated using Equation (1):(1) % peptide octanoylationa=fluorescence of octanoylated peptide/total peptide fluorescence,
IC50 values were determined by fitting Equation (2) to the plot of % activity against inhibitor concentration:(2) % activity=% vehicle1−Inhibitor/Inhibitor+IC50
[formula] Scheme 1 The GOAT inhibition assay for determining ligand binding. The octanoylation of a fluorescently labeled ghrelin-mimetic peptide substrate is inhibited by LC binding, with GOAT octanoylation activity and inhibition determined as described in the Section 2.

[1] = ± one standard deviation, read-out: IC50 against hGOAT

In the case of `CC(C)CC(NC(=O)C(Cc1cccc2ccccc12)NC(=O)C(CN)NC(=O)C(CO)NC(=O)CN)C(=O)NC(CO)C(=O)N1CCCC1C(=O)NC(C(=O)NCCOCCOCCOCCC(=O)NC(CS)C(N)=O)C(C)O` (stereo not drawn) [Ligand 3] (H-GS[Dap][1Nal]LSPT[PEG3]C-NH2; configuration not given here), the IC50 [1] is reported as 28.9 nM and 29 nM.
In the case of `C#CCOC[C@H]1CC[C@H](CN2C(=O)CC(SC[C@H](NC(=O)CCOCCOCCOCCNC(=O)[C@@H](NC(=O)[C@@H]3CCCN3C(=O)[C@H](CO)NC(=O)[C@H](CC(C)C)NC(=O)[C@H](Cc3cccc4ccccc34)NC(=O)[C@H](CN)NC(=O)[C@H](CO)NC(=O)CN)[C@@H](C)O)C(N)=O)C2=O)CC1` (stereo partly drawn) [Ligand 5, H-GS-Dap-Nal-1-LSPT-Mini-PEG3a-C-Linker] (H-GS[Dap][1Nal]LSPT[PEG3]C(X7)-NH2), the IC50 [1] is reported as 13 ± 1 nM.
With `CC(C)C[C@H](NC(=O)[C@H](Cc1cccc2ccccc12)NC(=O)[C@H](CN)NC(=O)[C@H](CO)NC(=O)CN)C(=O)N[C@@H](CO)C(=O)N1CCC[C@H]1C(=O)N[C@H](C(=O)NCCOCCOCCOCCC(=O)N[C@@H](CCn1cc(COC[C@H]2CC[C@H](CN3C(=O)C=CC3=O)CC2)nn1)C(N)=O)[C@@H](C)O` [Ligand 6, H-GS-Dap-Nal-1-LSPT-Mini-PEG3a-AHA-Linker] the IC50 (apparent IC50, read-out: IC50 against hGOAT) was > 1000 nM and 1000 nM and the IC50 [1] was 1050 ± 79.5 nM.
With `CC(C)C[C@H](NC(=O)[C@H](Cc1cccc2ccccc12)NC(=O)[C@H](CN)NC(=O)[C@H](CO)NC(=O)CN)C(=O)N[C@@H](CO)C(=O)N1CCC[C@H]1C(=O)N[C@H](C(=O)NCCOCCOCCOCCC(=O)N[C@@H](CSC1CC(=O)N(C[C@H]2CC[C@H](COCc3cn(CCCNC(=O)c4ccc(-c5c6ccc(=N)c(S(=O)(=O)O)c-6oc6c(S(=O)(=O)O)c(N)ccc56)c(C(=O)O)c4)nn3)CC2)C1=O)C(N)=O)[C@@H](C)O` (stereo partly drawn) [Ligand 7, H-GS-Dap-Nal-1-LSPT-Mini-PEG3a-C-Linker-AF488azide] (H-GS[Dap][1Nal]LSPT[PEG3]C(X2)-NH2) the “IC50 relative to parent ligand 5” value was “six- to eight-fold higher”.
In the case of `CC(C)C[C@H](NC(=O)[C@H](Cc1cccc2ccccc12)NC(=O)[C@H](CN)NC(=O)[C@H](CO)NC(=O)CN)C(=O)N[C@@H](CO)C(=O)N1CCC[C@H]1C(=O)N[C@H](C(=O)NCCOCCOCCOCCC(=O)N[C@@H](CSC1CC(=O)N(C[C@H]2CC[C@H](COCc3cn(CCCNC(=O)c4ccc5c(c4)C(=O)OC54c5ccc(O)cc5Oc5cc(O)ccc54)nn3)CC2)C1=O)C(N)=O)[C@@H](C)O` (stereo partly drawn) [Ligand 8, H-GS-Dap-Nal-1-LSPT-Mini-PEG3-C-Linker-FAM5azide] (H-GS[Dap][1Nal]LSPT[PEG3]C(X3)-NH2), the IC50 [1] is reported as 73.8 ± 4.8 nM and the “IC50 relative to parent ligand 5” value is reported as “six- to eight-fold higher”.
`CC(C)C[C@H](NC(=O)[C@H](Cc1cccc2ccccc12)NC(=O)[C@H](CN)NC(=O)[C@H](CO)NC(=O)CN)C(=O)N[C@@H](CO)C(=O)N1CCC[C@H]1C(=O)N[C@H](C(=O)NCCOCCOCCOCCC(=O)N[C@@H](CSC1CC(=O)N(C[C@H]2CC[C@H](COCc3cn(CCCNC(=O)CCCCC[N+]4=C(/C=C/C=C/C=C5N(C)c6ccc(S(=O)(=O)O)cc6C5(C)C)C(C)(C)c5cc(S(=O)(=O)[O-])ccc54)nn3)CC2)C1=O)C(N)=O)[C@@H](C)O` (stereo partly drawn) [Ligand 9, H-GS-Dap-Nal-1-LSPT-Mini-PEG3a-C-Linker-SulfoCy5azide] (H-GS[Dap][1Nal]LSPT[PEG3]C(X4)-NH2) was tested, and the IC50 [1] was 84.4 ± 11.5 nM and the “IC50 relative to parent ligand 5” value was “six- to eight-fold higher”.
For `COc1cc(/N=N/c2ccc(C)cc2[N+](=O)[O-])c(C)cc1/N=N/c1ccc(N(C)CCCC(=O)NCCn2cc(COC[C@H]3CC[C@H](CN4C(=O)CC(SC[C@H](NC(=O)CCOCCOCCOCCNC(=O)[C@@H](NC(=O)[C@@H]5CCCN5C(=O)[C@H](CO)NC(=O)[C@H](CC(C)C)NC(=O)[C@H](Cc5cccc6ccccc56)NC(=O)[C@H](CN)NC(=O)[C@H](CO)NC(=O)CN)[C@@H](C)O)C(N)=O)C4=O)CC3)nn2)cc1` (stereo partly drawn) [Ligand 12, H-GS-Dap-Nal-1-LSPT-Mini-PEG3-C-Linker-AzoDye1azide] (H-GS[Dap][1Nal]LSPT[PEG3]C(X5)-NH2), the IC50 [1] was 5.9 ± 1.7 nM.
Work on `CC(C)CC(NC(=O)C(Cc1cccc2ccccc12)NC(=O)C(CN)NC(=O)C(CO)NC(=O)CN)C(=O)NC(CO)C(=O)N1CCCC1C(=O)NC(C(=O)NCCOCCOCCOCCC(=O)NC(CCCCNC(=O)CCCCC1SCC2NC(=O)NC21)C(N)=O)C(C)O` (stereo not drawn) [Ligand 13] (H-GS[Dap][1Nal]LSPT[PEG3]K(X1)-NH2; configuration not given here) yielded an IC50 [1] of 51.8 ± 5.7 nM.
With `COc1cc2cc(c1Cl)N(C)C(=O)C[C@H](OC(=O)[C@H](C)N(C)C(=O)CCSC1CC(=O)N(C[C@H]3CC[C@H](COCc4cn(CC[C@H](NC(=O)CCOCCOCCOCCNC(=O)[C@@H](NC(=O)[C@@H]5CCCN5C(=O)[C@H](CO)NC(=O)[C@H](CC(C)C)NC(=O)[C@H](Cc5cccc6ccccc56)NC(=O)[C@H](CN)NC(=O)[C@H](CO)NC(=O)CN)[C@@H](C)O)C(N)=O)nn4)CC3)C1=O)[C@]1(C)O[C@H]1[C@H](C)[C@@H]1C[C@@](O)(NC(=O)O1)[C@H](OC)/C=C/C=C(\C)C2` (stereo partly drawn) [Ligand 14, H-GS-Dap-Nal-1-LSPT-Mini-PEG3a-AHA-Linker-Mertansine] the IC50 (IC50 against hGOAT, ± one standard deviation) was 18.8 nM and ~20 nM.
`CC(C)C[C@H](NC(=O)[C@H](Cc1cccc2ccccc12)NC(=O)[C@H](CN)NC(=O)[C@H](CO)NC(=O)CN)C(=O)N[C@@H](CO)C(=O)N1CCC[C@H]1C(=O)N[C@H](C(=O)NCCOCCOCCOCCC(=O)N[C@@H](CSC1CC(=O)N(CCNC(=O)CCCCC[N+]2=C(/C=C/C=C/C=C3N(C)c4ccc(S(=O)(=O)O)cc4C3(C)C)C(C)(C)c3cc(S(=O)(=O)[O-])ccc32)C1=O)C(N)=O)[C@@H](C)O` (stereo partly drawn) [Ligand 16] showed an IC50 [1] of 56.8 ± 8.6 nM.
`COc1cc(/N=N/c2ccc(C)cc2[N+](=O)[O-])c(C)cc1/N=N/c1ccc(N(C)CCCC(=O)NCc2cn(CC[C@H](NC(=O)CCOCCOCCOCCNC(=O)[C@@H](NC(=O)[C@@H]3CCCN3C(=O)[C@H](CO)NC(=O)[C@H](CC(C)C)NC(=O)[C@H](Cc3cccc4ccccc34)NC(=O)[C@H](CN)NC(=O)[C@H](CO)NC(=O)CN)[C@@H](C)O)C(N)=O)nn2)cc1` [Ligand 17, H-GS-Dap-Nal-1-LSPT-Mini-PEG3a-AHA-AzoDye1alkyne] showed an IC50 [1] of 3.9 ± 0.4 nM.
With “H-GS-Dap-Nal-1-LSPT-Mini-PEG3a-C-Linker-TideQuencher2azide [Ligand 11]” the IC50 [1] was 25.7 ± 6.2 nM and the “IC50 relative to parent ligand 5” value was “approximately two-fold higher”.
For “H-GS-Dap-Nal-1-LSPT-Mini-PEG3b-C-NH2 [Ligand 3’]”, the “change in binding potency with PEG3 linker B compared to linker A” value was “approximately four-fold drop”.
For “H-GS-Dap-Nal-1-LSPT-Mini-PEG3b-C-SulfoCy5maleimide [Ligand 16’]”, the “change in binding potency with PEG3 linker B compared to linker A” value was “approximately two-fold increase”.
